Results from patent US12317914B2, “Compositions and methods using one or more autophagy-inducing amino acids to potentiate musculoskeletal effect of one or more anabolic amino acids” (SOCIETE DES PRODUITS NESTLE S.A., priority 2019, dated 2025).

Test system: LC3 protein fused to ZsGreen
Assay: zebrafish autophagy reporter (LC3-ZsGreen, skeletal muscle specific promoter), number of LC3 punctae
Type: in vivo
Conditions: zebrafish larvae treated at 48 h post-fertilization, 0.25 to 10 mM, 16 hours of treatment
Description: After 16 hours of treatment larvae were anesthetized with 0.016% tricaine and imaged with ImageXpress confocal system at 20× magnification (Molecular Devices). Z stack images were captured for each larva and maximal projection images were produced. Number of LC3 punctae have been calculated with MetaXpress software (Moleculare Devices) and normalized by fish area.

| Compound | effect on autophagy (number of LC3 punctae normalized by fish area) |
| --- | --- |
| N[C@@H](CCC(=O)O)C(=O)O [Glutamate] | strongly induce autophagy |
| N=C(N)NCCC[C@H](N)C(=O)O [Arginine] | reduce basal autophagy |
| NCC(=O)O [Glycine] | strongly induce autophagy |
| N[C@@H](CS)C(=O)O [Cysteine] | strongly induce autophagy |
| NC(=O)CC[C@H](N)C(=O)O [Glutamine] | reduce basal autophagy |
| O=C(O)[C@@H]1CCCN1 [Proline] | strongly induce autophagy |
| CC[C@H](C)[C@H](N)C(=O)O [Isoleucine] | reduce basal autophagy |
| N[C@@H](Cc1ccc(O)cc1)C(=O)O [Tyrosine] | strongly induce autophagy |
| N[C@@H](CO)C(=O)O [Serine] | strongly induce autophagy |
| CSCC[C@H](N)C(=O)O [Methionine] | strongly induce autophagy |
| CC(C)C[C@H](N)C(=O)O [Leucine] | reduce basal autophagy |
| CC(=O)N[C@@H](CS)C(=O)O [N-Acetyl Cysteine] | strongly induce autophagy |
| CC(C)[C@H](N)C(=O)O [Valine] | strongly induce autophagy |
